pIC50: −log10 of the molar value.

Data set [1] concerns the target T1, Acyl-CoA desaturase 1 (Rattus norvegicus, UniProt P07308).
T1 sequence (P07308 whole entry): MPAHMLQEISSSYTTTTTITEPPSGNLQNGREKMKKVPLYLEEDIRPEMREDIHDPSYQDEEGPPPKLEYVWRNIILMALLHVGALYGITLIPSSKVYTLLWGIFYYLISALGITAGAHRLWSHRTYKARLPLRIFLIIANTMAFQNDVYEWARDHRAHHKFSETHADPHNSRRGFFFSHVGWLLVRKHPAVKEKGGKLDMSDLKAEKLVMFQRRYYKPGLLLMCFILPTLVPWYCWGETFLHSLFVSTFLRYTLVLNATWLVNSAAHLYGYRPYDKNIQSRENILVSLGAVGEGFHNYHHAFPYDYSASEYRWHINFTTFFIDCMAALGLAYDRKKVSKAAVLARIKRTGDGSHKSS
Nature of the data set: Inhibition of SCD1 in Wistar rat liver microsomes using [14C] stearic acid as substrate incubated for 10 mins prior to substrate addition measured after 1 hr by chromatographic analysis. Also on record: species or system Microsome. (In general: Liver microsomes are vesicles of endoplasmic reticulum, rich in cytochrome P450 enzymes.)

For data set [2], the target named is T2, Stearoyl-CoA desaturase (Homo sapiens, UniProt O00767).
T2 sequence (O00767 whole entry): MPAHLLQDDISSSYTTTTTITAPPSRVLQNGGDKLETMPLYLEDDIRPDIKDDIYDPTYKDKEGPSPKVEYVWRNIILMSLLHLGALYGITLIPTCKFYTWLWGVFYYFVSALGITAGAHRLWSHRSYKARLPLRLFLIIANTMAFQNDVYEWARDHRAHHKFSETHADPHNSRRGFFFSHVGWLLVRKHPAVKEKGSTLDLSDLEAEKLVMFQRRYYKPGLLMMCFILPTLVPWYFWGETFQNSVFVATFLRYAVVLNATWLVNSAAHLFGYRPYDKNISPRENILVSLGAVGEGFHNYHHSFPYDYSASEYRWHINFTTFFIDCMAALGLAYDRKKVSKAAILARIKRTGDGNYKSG
Nature of the data set: Inhibition of SCD1 in human HepG2 cells. It is filed as cell-based.

The nature of data set [3]: Drug metabolism in human in presence of quinidine. It is filed as ADME, organism-based. The conditions noted are these: in vivo, with quinidine, read-out: Drug metabolism.
Data set [4] can be described thus: Drug metabolism in human. The conditions noted are these: in vivo, read-out: Drug metabolism. In kind it is ADME, organism-based.
Data set [5] in a line: Drug metabolism in rat. It is filed as ADME, organism-based. The conditions noted are these: in vivo, read-out: Drug metabolism.
Data set [6] is described as follows: Lipophilicity, log D of the compound at pH 7.4. In kind it is physicochemical. The conditions noted are these: buffer.
The target of data set [7] is T1, Acyl-CoA desaturase 1. Nature of the data set: Inhibition of SCD1 in rat H42E cells. It is filed as cell-based.
Data set [8] can be described thus: Drug metabolism in human in presence of ketoconazole. It is filed as ADME, organism-based. The conditions noted are these: in vivo, with ketoconazole, read-out: Drug metabolism.
A short description of data set [9]: Drug metabolism in mouse. In kind it is ADME, organism-based. The conditions noted are these: in vivo, read-out: Drug metabolism.
Data set [10] in a line: Permeability across human Caco2 cells. It is filed as ADME, cell-based. The conditions noted are these: Caco-2, read-out: permeability. On the technique in general: Caco-2 cells form a polarised layer with tight junctions and transporters.
For data set [11], the system named is HepG2. Nature of the data set: Inhibition of ACC phosphorylation in human HepG2 cells at 10 uM by Western blotting analysis relative to control. In kind it is cell-based. On the technique in general: A western blot detects proteins with antibodies after separation by electrophoresis.
Data set [12] is described as follows: Cmax in Zucker diabetic fatty rat at 30 mg/kg, po after 4 hrs. The conditions noted are these: in vivo. Also on record: dose 30 mg/kg, route oral. It is filed as ADME, organism-based.
Data set [13] concerns Rattus norvegicus. Nature of the data set: Volume of distribution at steady state in Zucker diabetic fatty rat at 5 mg/kg, iv. In kind it is ADME, organism-based. Also on record: dose 5 mg/kg, route intravenous. The conditions noted are these: in vivo.
A short description of data set [14]: Oral bioavailability in Zucker diabetic fatty rat at 30 mg/kg. It is filed as ADME, organism-based. The conditions noted are these: in vivo.
Data set [15] concerns Rattus norvegicus. Nature of the data set: In vivo inhibition of SCD1 in Zucker diabetic fatty rat assessed as decrease in serum fatty acid desaturation index at 30 mg/kg, po after 6 hrs relative to vehicle-treated control. In kind it is functional.
Data set [16] is described as follows: Half life in Zucker diabetic fatty rat at 5 mg/kg, iv. It is filed as ADME, organism-based. Also on record: dose 5 mg/kg, route intravenous. The conditions noted are these: in vivo.
Data set [17] in a line: Plasma clearance in Zucker diabetic fatty rat at 5 mg/kg, iv. It is filed as ADME, organism-based. Also on record: dose 5 mg/kg, route intravenous.
Data set [18] in a line: Apparent half life in Zucker diabetic fatty rat at 30 mg/kg, po. It is filed as ADME, organism-based. Details: dose 30 mg/kg, route oral. The conditions noted are these: in vivo, read-out: t1/2(app) (converted).

In turn, `CNC(=O)c1ccc2nc(-c3ccc(Oc4ccccc4C(F)(F)F)cc3)[nH]c2c1` had a pIC50 in [1] of 4.57.

Turning to `O=C(NCc1cccc(C(F)(F)F)c1)c1ccc2[nH]c(-c3ccc(Oc4ccccc4)cc3)nc2c1`, in [1], the pIC50 was 4.93.

`CC(C)CCNC(=O)c1ccc2nc(-c3ccc(C(=O)c4ccccc4C(F)(F)F)cc3)[nH]c2c1` showed a pIC50 in data set [1] of 5.41.

Turning to `O=C(NCc1nccs1)c1ccc2[nH]c(-c3ccc(Oc4ccccc4C(F)(F)F)cc3)nc2c1`, the pIC50 in [2] was 6.50; in [1], 6.67.

Turning to `O=C(NCc1nccs1)c1ccc2nc(-c3ccc(Oc4ccccc4Cl)cc3)[nH]c2c1`, the metabolised in data set [3] came to 40%; in data set [4], 45%; in data set [5], 38%; in data set [8], 16%; in data set [9], 23%. The negative-log IC50 (pIC50) in data set [2] is 5.94; in data set [1], 6.94; in [7], 6.52. In data set [6], this compound showed a logD of 2.24. Further, the Papp in data set [10] was 6.36 ×10⁻⁶ cm/s.

As for `O=C(NCCCc1ccccc1)c1ccc2nc(-c3ccc(Oc4ccccc4C(F)(F)F)cc3)[nH]c2c1`, the pIC50 in data set [1] was less than 4.00.

In turn, `CCn1c(COCc2ccccc2)nc2cc(C(=O)NCCc3ccc(O)cc3)ccc21` had a pIC50 in data set [1] of 5.30.

In data set [1], `O=C(NCc1cccs1)c1ccc2nc(-c3ccc(C(=O)c4ccccc4C(F)(F)F)cc3)[nH]c2c1` gave a pIC50 of 7.00.

For the compound `O=C(NCc1ccccc1)c1ccc2nc(-c3ccc(Oc4ccccc4)cc3)[nH]c2c1`, the pIC50 in data set [1] is 5.11.

As for `O=C(c1ccccc1)c1ccc2nc(-c3ccc(C(=O)c4ccccc4C(F)(F)F)cc3)[nH]c2c1`, the pIC50 in data set [1] is less than 4.00.

Turning to `OC(c1ccc2[nH]c(-c3ccc(OCc4ccccc4)cc3)nc2c1)c1ccccc1C(F)(F)F` (racemic), the metabolised came out at 60% in data set [3], 71% in data set [4], 20% in data set [5] and 46% in [8]. Besides, the pIC50 in [2] was 6.53; in [1], 7.09; in data set [7], 7.85. In addition, the Papp in data set [10] is 18.2 ×10⁻⁶ cm/s.

Turning to `O=C(NCCC1CC1)c1ccc2[nH]c(-c3ccc(Oc4ccccc4Cl)cc3)nc2c1`, the inhibition in data set [11] was determined as 140%.

With `O=C(NCc1ccc(Cl)s1)c1ccc2[nH]c(-c3ccc(Oc4ccccc4)cc3)nc2c1`, in data set [1], the pIC50 was 5.43.

Regarding `O=C(c1ccc2nc(-c3ccc(OCc4ccccc4)cc3)[nH]c2c1)c1ccccc1C(F)(F)F`, the pIC50 in [1] was 4.88.

`O=C(NCc1nccs1)c1ccc2nc(-c3ccc(Oc4ccccc4)cc3)[nH]c2c1`: the pIC50 in data set [1] was 5.19.

As for `O=C(NCc1nccs1)c1ccc2[nH]c(-c3ccc(C(=O)c4ccccc4C(F)(F)F)cc3)nc2c1`, the pIC50 in data set [2] was 6.75; in [1], 7.11; in [7], 6.98.

On to `O=C(Nc1nccs1)c1ccc2nc(-c3ccc(C(=O)c4ccccc4C(F)(F)F)cc3)[nH]c2c1`, for which the pIC50 in data set [1] is 5.34.

`O=C(Cc1cccs1)Nc1ccc2nc(N3CCN(C(=O)c4ccccc4C(F)(F)F)CC3)[nH]c2c1` gave a pIC50 in data set [1] of 5.49.

For `O=C(NCCC1CC1)c1ccc2nc(-c3ccc(Oc4ccccc4)cc3)[nH]c2c1`, in [1], the pIC50 is 4.60.

Consider `O=C(NCC1CC1)c1ccc2[nH]c(-c3ccc(Oc4ccccc4)cc3)nc2c1`, for which, in [1], the pIC50 was 4.78.

In turn, `CC(C)CCNC(=O)c1ccc2nc(-c3ccc(Oc4ccccc4)cc3)[nH]c2c1` had a pIC50 in data set [1] of 4.67.

As for `O=C(NCc1ccc(Cl)s1)c1ccc2nc(-c3ccc(Oc4ccccc4Cl)cc3)[nH]c2c1`, the metabolised in [3] was determined as 62%; in data set [4], 64%; in data set [5] it was 31%; in [8] it was 41%; in data set [9], 36%. The values for the pIC50 in [2] and in data set [1] were 5.87 and 6.08, respectively. Moreover, the Papp in data set [10] came out at 11.4 ×10⁻⁶ cm/s.

Compound `O=C(NCCC1CC1)c1ccc2nc(-c3ccc(Oc4ccccc4C(F)(F)F)cc3)[nH]c2c1` showed a pIC50 in data set [1] of 6.27.

The compound `O=C(c1ccccc1)c1ccc2nc(-c3ccc(-c4ccccc4)cc3)[nH]c2c1` had a pIC50 in data set [1] of less than 4.00.

`O=C(NCc1nccs1)c1cccc(-c2nc3cc(Oc4ccccc4C(F)(F)F)ccc3[nH]2)c1` gave a pIC50 in data set [1] of 5.89.

Regarding `CC(C)CCNC(=O)c1ccc2[nH]c(-c3ccc(Oc4ccccc4Cl)cc3)nc2c1`, the pIC50 in [1] was 5.57.

`O=C(NCc1ccc(Cl)s1)c1ccc2[nH]c(-c3ccc(C(=O)c4ccccc4C(F)(F)F)cc3)nc2c1`: the metabolised in data set [3] came out at 40%; in data set [4], 45%; in data set [5] it was 40%; in [8] it was 10%. The pIC50 in [2] is 6.80; in data set [1], 6.87; in data set [7], 6.74. In [12], this compound yielded a Cmax of 1950 ng/mL. For the same compound, the Vdss in data set [13] was found to be 1.7 L/kg. The bioavailability in data set [14] worked out at 25%. This compound yielded a logD in data set [6] of 3.94. Moreover, the inhibition in vivo at 30 mg/kg in data set [15] came to 84.4%. Further, the half-life in [16] was 6.5 h; in data set [18], 8.4 h. The compound also had a clearance in [17] of 4.17 mL/min/kg. Moreover, in data set [10], the Papp worked out at 5.26 ×10⁻⁶ cm/s.

On to `CC(C)CCNC(=O)c1ccc2nc(-c3ccc(Oc4ccccc4C(F)(F)F)cc3)[nH]c2c1`, for which, in [1], the pIC50 was 6.36.

`O=C(NCc1ccc(Cl)s1)c1cccc(-c2nc3cc(Oc4ccccc4C(F)(F)F)ccc3[nH]2)c1` gave a pIC50 in data set [1] of 5.66.

Compound `CCOC(=O)c1ccc2[nH]c(-c3ccc(Oc4ccccc4C(F)(F)F)cc3)nc2c1` showed a pIC50 in data set [1] of 4.42.

In the case of `O=C(NCCC1CC1)c1ccc2nc(-c3ccc(Oc4ccccc4Cl)cc3)[nH]c2c1`, the metabolised in data set [3] was 58%; in data set [4] it was 62%; in data set [5], 38%; in data set [8], 45%; in data set [9], 49%. Also, the pIC50 in data set [2] was 5.63; in data set [1] it was 6.02. In data set [10], the Papp turned out to be 16.7 ×10⁻⁶ cm/s.

In turn, `O=C(NCCCc1ccccc1)c1ccc2nc(-c3ccc(Oc4ccccc4)cc3)[nH]c2c1` gave a pIC50 in data set [1] of 4.55.

As to `O=C(CCc1ccccc1)Nc1ccc(N2CCN(C(=O)c3ccccc3C(F)(F)F)CC2)nc1`, in data set [1], the pIC50 was 5.65.

With `O=C(NCc1ccc(Cl)s1)c1ccc2nc(-c3ccc(Oc4ccccc4C(F)(F)F)cc3)[nH]c2c1`, the pIC50 was 6.36 in data set [2] and 6.85 in [1].

In data set [1], `O=C(NCc1cccs1)c1ccc2nc(-c3ccc(Oc4ccccc4)cc3)[nH]c2c1` gave a pIC50 of 5.42. In addition, the logD in data set [6] worked out at 3.68.

`O=C(c1ccccc1)c1ccc2nc(-c3ccc(Oc4ccccc4)cc3)[nH]c2c1` had a pIC50 in data set [1] of 4.80.

Usually pIC50 stands for −log10 of the IC50, conventionally taken in molar units. The low end stands for a high IC50, the high end for a low IC50. In general, logD refers to the decadic logarithm of the distribution of all forms, ionised or not, between an organic phase and buffer at a given pH. As a reminder, the inhibition is the drop in the measured response relative to a control, in per cent. For orientation: Cmax means the highest concentration seen after dosing. Broadly, the Vdss is a proportionality between amount in the body and measured concentration, not a real space. For orientation: bioavailability means dose-corrected exposure relative to a reference, in per cent. In general, inhibition in vivo refers to the drop in the measured response relative to a control, in per cent. One may read the clearance as a measure of how efficiently the substance is removed, as volume per time. Low readings indicate a low capacity for elimination, high ones a high capacity for elimination.

(Values after ChEMBL document CHEMBL2331419, “Benzimidazole-carboxamides as potent and bioavailable stearoyl-CoA desaturase (SCD1) inhibitors from ligand-based virtual screening and chemical optimization” (Bioorg Med Chem Lett, 2013).)
